This passage reports IC50 results from patent US10899732B2, “Substituted benzamides useful as sodium channel blockers” (GENENTECH, INC., priority 2015, dated 2021).

Each structure is given as a SMILES string. Structures can show the parent of a compound that is named as a salt. A value given as a limit tells only on which side of the number the result lay.

One data set has as its target T1, hNav1.7 (Homo sapiens, UniProt Q15858).
T1 construct: expressed in transfected cells
As to the kind of experiment: Tritiated sulfonamide competitive binding to membranes from cells expressing hNav1.7 and the β1 subunit (LBA). To be noted: competition with 100 pM [3H]compound, 18 h, room temperature; read-out: Nav1.7 (LBA). As to the method:
Tritiated Sulfonamide Binding to Membranes Isolated from Cells that Heterologously Express hNav1.7 and the β1 Subunit
Preparation of membranes containing recombinantly expressed sodium channels: Frozen recombinant cell pellets were thawed on ice and diluted to 4 times the cell pellet weight with ice cold 50 mM Tris HCl, pH 7.4 buffer. The cell suspensions were homogenized on ice using a motorized glass dounce homogenizer. Homogenates were further diluted 8.4 times with ice cold 50 mM Tris HCl, pH 7.4 buffer and then centrifuged at 200×g at 4° C. for 15 min. The supernatants were collected and centrifuged at 10000×g at 4° C. for 50 min. The pellets were then re-suspended in 100 mM NaCl, 20 mM Tris HCl, pH 7.4 buffer containing 1% v/v protease inhibitors (Calbiochem) and re-homogenized on ice. The homogenized membranes were then processed through a syringe equipped with a 26 gauge needle. Protein concentrations were determined by Bradford Assay and the membranes were stored at −80° C.
Saturation experiments. A competitive NaV1.7 inhibitor having a methyl group was tritiated. Three tritiums were incorporated in place of methyl hydrogens to generate [^3H]compound. Binding of this radioligand was preformed in 5 mL borosilicate glass test tubes at room temperature. Binding was initiated by adding membranes to increasing concentrations of [^3H]compound in 100 mM NaCl, 20 mM Tris HCl, pH 7.4 buffer containing 0.01% w/v bovine serum albumin (BSA) for 18 h. Non-specific binding was determined in the presence of 1 μM unlabelled compound. After 18 h, the reactants were filtered through GF/C glass fiber filters presoaked in 0.5% w/v polyethylene imine. Filters were washed with 15 mL ice cold 100 mM NaCl, 20 mM Tris HCl, pH 7.4 buffer containing 0.25% BSA to separate bound from free ligand. [^3H]compound bound to filters was quantified by liquid scintillation counting.
Binding reactions were performed in 96-well polypropylene plates at room temperature for 18 h. In 360 μL, membranes were incubated with 100 pM [^3H]compound and increasing concentrations of Test Compound. Non-specific binding was defined in the presence of 1 μM unlabelled compound. Reactions were transferred and filtered through 96-well glass fiber/C filter plates presoaked with 0.5% polyethylene imine. The filtered reactions were washed 5 times with 200 μL ice cold buffer containing 0.25% BSA. Bound radioactivity was determined by liquid scintillation counting.
Data Analysis: For saturation experiments, non-specific binding was subtracted from total binding to provide specific binding and these values were recalculated in terms of pmol ligand bound per mg protein. Saturation curves were constructed and dissociation constants were calculated using the single site ligand binding model: Beq=(Bmax*X)/(X+Kd), where Beq is the amount of ligand bound at equilibrium, Bmax is the maximum receptor density, Kd is the dissociation constant for the ligand, and X is the free ligand concentration. For competition studies percent inhibition was determined and IC50 values were calculated using a 4 parameter logistic model (% inhibition=(A+((B−A)/(1+((x/C)^D)))) using XLfit, where A and B are the maximal and minimum inhibition respectively, C is the IC50 concentration and D is the (Hill) slope.

The target in another data set is T2, NaV1.7 (Homo sapiens, UniProt Q15858).
T2 construct: expression vector containing the full-length cDNA coding for the desired human sodium channel α-subunit; expressed in transfected cells; host or cells: HEK-293
T2 sequence (Q15858 1-1977 isoform Q15858-3): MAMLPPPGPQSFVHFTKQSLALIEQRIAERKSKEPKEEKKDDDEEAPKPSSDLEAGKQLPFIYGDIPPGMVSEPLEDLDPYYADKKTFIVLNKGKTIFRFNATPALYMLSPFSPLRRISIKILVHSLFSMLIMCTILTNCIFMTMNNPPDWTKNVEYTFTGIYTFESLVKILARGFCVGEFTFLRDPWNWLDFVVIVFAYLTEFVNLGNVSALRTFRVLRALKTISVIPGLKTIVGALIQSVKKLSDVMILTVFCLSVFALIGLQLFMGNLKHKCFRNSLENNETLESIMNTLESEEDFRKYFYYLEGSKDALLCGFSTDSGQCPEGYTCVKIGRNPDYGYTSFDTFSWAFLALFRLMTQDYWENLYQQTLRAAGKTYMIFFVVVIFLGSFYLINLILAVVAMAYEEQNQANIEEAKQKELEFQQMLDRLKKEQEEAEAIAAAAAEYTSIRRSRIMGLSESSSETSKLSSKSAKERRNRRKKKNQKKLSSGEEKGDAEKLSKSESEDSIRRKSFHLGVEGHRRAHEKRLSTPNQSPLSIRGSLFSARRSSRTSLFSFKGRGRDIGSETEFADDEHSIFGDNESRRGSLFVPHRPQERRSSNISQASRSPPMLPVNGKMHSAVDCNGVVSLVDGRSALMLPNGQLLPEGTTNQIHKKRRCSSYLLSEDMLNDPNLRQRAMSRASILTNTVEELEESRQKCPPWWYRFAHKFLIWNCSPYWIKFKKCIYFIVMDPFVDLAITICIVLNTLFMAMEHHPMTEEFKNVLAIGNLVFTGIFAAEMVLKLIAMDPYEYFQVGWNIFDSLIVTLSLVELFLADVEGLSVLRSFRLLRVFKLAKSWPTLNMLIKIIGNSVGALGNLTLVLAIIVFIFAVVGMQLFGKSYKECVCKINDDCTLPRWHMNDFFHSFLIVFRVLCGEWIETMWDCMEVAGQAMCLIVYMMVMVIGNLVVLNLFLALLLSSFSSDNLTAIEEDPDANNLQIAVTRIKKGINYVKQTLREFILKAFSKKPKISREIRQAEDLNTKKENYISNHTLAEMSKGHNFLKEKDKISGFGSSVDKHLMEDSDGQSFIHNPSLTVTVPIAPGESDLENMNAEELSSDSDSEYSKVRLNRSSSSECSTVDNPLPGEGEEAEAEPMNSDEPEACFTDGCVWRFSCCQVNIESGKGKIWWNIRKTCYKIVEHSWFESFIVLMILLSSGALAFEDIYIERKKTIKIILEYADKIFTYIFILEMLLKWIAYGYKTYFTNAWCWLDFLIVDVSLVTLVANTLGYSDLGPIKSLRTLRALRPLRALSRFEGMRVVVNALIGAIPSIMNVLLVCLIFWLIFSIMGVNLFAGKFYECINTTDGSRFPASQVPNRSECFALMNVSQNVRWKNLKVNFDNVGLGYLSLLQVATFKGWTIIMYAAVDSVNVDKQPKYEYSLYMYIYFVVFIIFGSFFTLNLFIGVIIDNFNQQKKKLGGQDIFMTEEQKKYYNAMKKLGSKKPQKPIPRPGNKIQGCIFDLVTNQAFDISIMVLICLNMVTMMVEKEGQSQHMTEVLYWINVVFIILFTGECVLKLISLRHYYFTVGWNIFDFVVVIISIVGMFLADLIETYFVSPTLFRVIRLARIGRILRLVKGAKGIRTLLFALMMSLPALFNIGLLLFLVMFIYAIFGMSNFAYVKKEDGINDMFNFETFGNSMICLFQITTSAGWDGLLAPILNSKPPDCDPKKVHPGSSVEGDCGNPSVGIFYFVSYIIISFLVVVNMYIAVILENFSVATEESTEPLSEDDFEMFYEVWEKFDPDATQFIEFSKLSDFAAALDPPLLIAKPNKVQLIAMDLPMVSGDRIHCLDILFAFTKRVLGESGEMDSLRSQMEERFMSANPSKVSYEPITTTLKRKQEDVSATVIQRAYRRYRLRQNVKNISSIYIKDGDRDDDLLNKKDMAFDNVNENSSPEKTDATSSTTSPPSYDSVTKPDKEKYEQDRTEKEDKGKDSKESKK
T2 sequence (Q07699 19-218 partner): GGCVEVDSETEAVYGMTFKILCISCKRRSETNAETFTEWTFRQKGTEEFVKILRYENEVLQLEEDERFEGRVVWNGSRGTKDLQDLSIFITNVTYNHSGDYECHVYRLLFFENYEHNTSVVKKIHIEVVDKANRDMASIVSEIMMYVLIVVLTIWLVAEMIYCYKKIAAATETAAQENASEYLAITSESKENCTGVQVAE
As to the kind of experiment: Patch voltage clamp electrophysiology assay (EP), NaV1.7 in HEK-293 cells. Particulars: HEK-293, β1 coexpressed, held at -60 mV (inactivated state). Format: cell-based. From the text: (§1) Electrophysiological Assay (EP) (In Vitro Assay)
(§2) Patch voltage clamp electrophysiology allows for the direct measurement and quantification of block of voltage-gated sodium channels (NaV's), and allows the determination of the time- and voltage-dependence of block which has been interpreted as differential binding to the resting, open, and inactivated states of the sodium channel (Hille, B., Journal of General Physiology (1977), 69: 497-515).
(§3) The following patch voltage clamp electrophysiology studies were performed on representative compounds of the invention using human embryonic kidney cells (HEK), permanently transfected with an expression vector containing the full-length cDNA coding for the desired human sodium channel α-subunit, grown in culture media containing 10% FBS, 1% PSG, and 0.5 mg/mL G418 at 37° C. with 5% CO2. […] NaV1.7 and NaV1.5 cDNAs (NM_002977 and AC137587; SCN5A, respectively) were stably expressed in HEK-293 cells. The β1 subunit was coexpressed in both the NaV1.7 and NaV1.5 cell lines.
(§4) Sodium currents were measured using the patch clamp technique in the whole-cell configuration using either a PatchXpress automated voltage clamp or manually using an Axopatch 200B (Axon Instruments) or Model 2400 (A-M systems) amplifier. The manual voltage clamp protocol was as follows: Borosilicate glass micropipettes were fire-polished to a tip diameter yielding a resistance of 2-4 Mohms in the working solutions. The pipette was filled with a solution comprised of: 5 mM NaCl, 10 mM CsCl, 120 mM CsF, 0.1 mM CaCl2, 2 mM MgCl2, 10 mM HEPES, 10 mM EGTA; and adjusted to pH 7.2 with CsOH. The external solution had the following composition: 140 mM NaCl, 5 mM KCl, 2 mM CaCl2, 1 mM MgCl2, 10 mM HEPES; and adjusted to pH 7.4 with NaOH. In some studies, the external sodium was reduced by equimolar replacement with choline. Osmolarity in the CsF internal and NaCl external solutions was adjusted to 300 mOsm/kg and 310 mOsm/kg with glucose, respectively. All recordings were performed at ambient temperature in a bath chamber with a volume of 150 μL. Control sodium currents were measured in 0.5% DMSO. Controls and representative compounds of the invention were applied to the recording chamber through a 4-pinch or 8-pinch valve bath perfusion system manufactured by ALA Scientific Instruments.
(§5) Currents were recorded at 40 kHz sampling frequency, filtered at […], and stored using a Digidata-1322A analogue/digital interface with the pClamp software (Axon Instruments). Series resistance compensation was applied (60-80%). […] All statistics in this study are given as mean±SD.
(§6) The membrane potential was maintained at a voltage where inactivation of the channel is complete (which was −60 mV for both NaV1.7 and NaV1.5). The voltage is then stepped back to a very negative (Vhold=[…]) voltage for 20 ms and then a test pulse is applied to quantify the compound block. The 20 ms brief repolarization was long enough for compound-free channels to completely recover from fast inactivation, but the compound-bound channels recovered more slowly such that negligible recovery could occur during this interval. The percent decrease in sodium current following wash-on of compound was taken as the percent block of sodium channels.

A further data set has as its target T3, NaV1.5 (Homo sapiens, UniProt Q14524).
T3 construct: expression vector containing the full-length cDNA coding for the desired human sodium channel α-subunit; expressed in transfected cells; host or cells: HEK-293
Nature of the data set: Patch voltage clamp electrophysiology assay (EP), NaV1.5 in HEK-293 cells. Format: cell-based. To be noted: HEK-293, β1 coexpressed, held at -60 mV (inactivated state).
Source text: as §1, §2, §3, §4, §5, §6

T3 sequence (Q14524 whole entry): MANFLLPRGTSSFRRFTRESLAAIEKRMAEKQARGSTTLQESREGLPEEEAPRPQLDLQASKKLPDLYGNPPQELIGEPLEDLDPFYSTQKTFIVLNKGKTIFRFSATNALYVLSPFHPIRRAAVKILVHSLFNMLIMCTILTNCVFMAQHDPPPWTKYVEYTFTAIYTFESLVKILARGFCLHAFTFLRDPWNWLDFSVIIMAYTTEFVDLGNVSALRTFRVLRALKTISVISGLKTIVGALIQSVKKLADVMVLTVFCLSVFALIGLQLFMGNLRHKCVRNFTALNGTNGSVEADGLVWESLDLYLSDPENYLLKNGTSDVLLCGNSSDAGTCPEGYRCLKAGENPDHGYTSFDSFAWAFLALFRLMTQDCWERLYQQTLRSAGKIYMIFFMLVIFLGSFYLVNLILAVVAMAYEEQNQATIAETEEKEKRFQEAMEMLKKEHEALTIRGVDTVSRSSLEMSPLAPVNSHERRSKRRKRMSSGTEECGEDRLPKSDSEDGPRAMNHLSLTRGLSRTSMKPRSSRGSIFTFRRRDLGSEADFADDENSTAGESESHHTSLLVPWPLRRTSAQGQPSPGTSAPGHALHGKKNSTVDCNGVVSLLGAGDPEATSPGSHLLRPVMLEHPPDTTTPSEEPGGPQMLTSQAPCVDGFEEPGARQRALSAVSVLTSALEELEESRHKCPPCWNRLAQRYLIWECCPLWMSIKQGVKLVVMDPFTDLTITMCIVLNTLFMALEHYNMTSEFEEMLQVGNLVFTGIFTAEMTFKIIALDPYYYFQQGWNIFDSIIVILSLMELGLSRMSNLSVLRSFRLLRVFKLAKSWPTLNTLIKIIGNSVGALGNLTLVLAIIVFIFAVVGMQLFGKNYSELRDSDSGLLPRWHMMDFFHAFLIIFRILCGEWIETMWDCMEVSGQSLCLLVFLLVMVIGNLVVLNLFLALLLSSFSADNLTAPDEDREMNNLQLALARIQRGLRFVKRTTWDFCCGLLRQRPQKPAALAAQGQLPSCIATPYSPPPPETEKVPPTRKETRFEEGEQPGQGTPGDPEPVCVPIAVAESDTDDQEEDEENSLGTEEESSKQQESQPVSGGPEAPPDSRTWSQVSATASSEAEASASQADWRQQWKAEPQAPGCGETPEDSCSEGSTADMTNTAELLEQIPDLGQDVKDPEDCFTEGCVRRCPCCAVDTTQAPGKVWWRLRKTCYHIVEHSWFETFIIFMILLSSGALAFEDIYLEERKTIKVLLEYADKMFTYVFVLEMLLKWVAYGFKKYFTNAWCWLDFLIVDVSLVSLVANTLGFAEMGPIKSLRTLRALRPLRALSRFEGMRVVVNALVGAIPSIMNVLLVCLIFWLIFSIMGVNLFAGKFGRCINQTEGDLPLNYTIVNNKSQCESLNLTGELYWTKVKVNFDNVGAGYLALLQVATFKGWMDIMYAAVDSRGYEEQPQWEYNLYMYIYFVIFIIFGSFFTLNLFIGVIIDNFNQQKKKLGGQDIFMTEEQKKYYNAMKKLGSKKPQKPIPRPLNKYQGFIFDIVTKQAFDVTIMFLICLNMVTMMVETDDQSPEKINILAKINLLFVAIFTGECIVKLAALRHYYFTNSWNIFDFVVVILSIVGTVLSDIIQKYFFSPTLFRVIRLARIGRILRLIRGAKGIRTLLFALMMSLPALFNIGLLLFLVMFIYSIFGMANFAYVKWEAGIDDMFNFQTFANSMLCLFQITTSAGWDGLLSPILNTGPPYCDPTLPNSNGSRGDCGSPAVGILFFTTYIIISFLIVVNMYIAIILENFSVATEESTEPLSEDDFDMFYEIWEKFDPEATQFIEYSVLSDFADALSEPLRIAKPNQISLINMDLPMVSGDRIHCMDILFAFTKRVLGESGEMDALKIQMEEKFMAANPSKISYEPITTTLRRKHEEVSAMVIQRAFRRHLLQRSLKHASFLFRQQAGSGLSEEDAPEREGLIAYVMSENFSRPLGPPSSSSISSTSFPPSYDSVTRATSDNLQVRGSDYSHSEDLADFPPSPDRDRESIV
T1 sequence (Q15858 1-1977 isoform Q15858-3): as the sequence (Q15858 1-1977 isoform Q15858-3) above
T1 sequence (Q07699 19-218 partner): as the sequence (Q07699 19-218 partner) above

As for `Cc1nn([C@@H]2CCN([C@@H](C)c3cc(Cl)cc(Cl)c3)C2)c2cc(F)c(C(=O)NS(=O)(=O)C3CC3)cc12` [Example 19, N-(cyclopropylsulfonyl)-1-((R)-1-((S)-1-(3,5-dichlorophenyl)ethyl)pyrrolidin-3-yl)-6-fluoro-3-methyl-1H-indazole-5-carboxamide, trifluoroacetic acid salt], the IC50 on hNav1.7 was 12 nM; against NaV1.7, 41 nM; against NaV1.5, 6300 nM.
Turning to `Cc1nn([C@@H]2CCN(Cc3ccc(Cl)cc3C(F)(F)F)C2)c2cc(F)c(C(=O)NS(=O)(=O)C3CC3)cc12` [Example 20, (R)-1-(1-(4-chloro-2-(trifluoromethyl)benzyl)pyrrolidin-3-yl)-N-(cyclopropylsulfonyl)-6-fluoro-3-methyl-1H-indazole-5-carboxamide, trifluoroacetic acid salt], the IC50 at hNav1.7 was 10 nM; on NaV1.7 it was 62 nM; at NaV1.5 it was 580 nM.
With `Cc1nn([C@@H]2CCN(C(=O)c3cc(Cl)cc(Cl)c3)C2)c2cc(F)c(C(=O)NS(=O)(=O)C3CC3)cc12` [Example 21, (R)-N-(cyclopropylsulfonyl)-1-(1-(3,5-dichlorobenzoyl)pyrrolidin-3-yl)-6-fluoro-3-methyl-1H-indazole-5-carboxamide], the IC50 at hNav1.7 was 1500 nM; at NaV1.7, 4000 nM; at NaV1.5 (human, pH 7.4) it was at least 30000 nM.
Regarding `Cc1nn([C@@H]2CCN([C@H](C)c3cc(Cl)cc(OC(F)(F)F)c3)C2)c2cc(F)c(C(=O)NS(=O)(=O)C3CC3)cc12` [Example 22, 1-((R)-1-((R)-1-(3-chloro-5-(trifluoromethoxy)phenyl)ethyl)pyrrolidin-3-yl)-N-(cyclopropylsulfonyl)-6-fluoro-3-methyl-1H-indazole-5-carboxamide, trifluoroacetic acid salt], the IC50 on hNav1.7 stood at 20 nM; at NaV1.7 it was 110 nM; on NaV1.5, 4800 nM.
Regarding `Cc1nn(CC2CN(C(c3ccccc3)c3ccccc3)C2)c2cc(F)c(C(=O)NS(C)(=O)=O)cc12` [Example 23, 1-((1-benzhydrylazetidin-3-yl)methyl)-6-fluoro-3-methyl-N-(methylsulfonyl)-1H-indazole-5-carboxamide], the IC50 on hNav1.7 was 280 nM; against NaV1.7, 550 nM; against NaV1.5 (human, pH 7.4) it was at least 30000 nM.
As for `Cc1nn(C2CN(C(c3ccccc3)c3ccccc3)C2)c2cc(F)c(C(=O)NS(C)(=O)=O)cc12` [Example 24, 1-(1-benzhydrylazetidin-3-yl)-6-fluoro-3-methyl-N-(methylsulfonyl)-1H-indazole-5-carboxamide], the IC50 was determined as 48 nM on hNav1.7, 87 nM on NaV1.7 and 8600 nM on NaV1.5.
On to `Cc1nn(C2CCC(C(C)C)CC2)c2cc(F)c(C(=O)NS(C)(=O)=O)cc12` (stereo not drawn) [Example 33, 6-fluoro-1-(4-isopropylcyclohexyl)-3-methyl-N-(methylsulfonyl)-1H-indazole-5-carboxamide], for which the IC50 on hNav1.7 amounted to 20 nM; against NaV1.7, 79 nM; against NaV1.5, 20000 nM.
`Cc1nn(C23CC4CC(CC(C4)C2)C3)c2cc(F)c(C(=O)NS(=O)(=O)N3CCC3)cc12` [Example 35, 1-((3s,5s,7s)-adamantan-1-yl)-N-(azetidin-1-ylsulfonyl)-6-fluoro-3-methyl-1H-indazole-5-carboxamide]: the IC50 at hNav1.7 is 180 nM; against NaV1.7, 1000 nM; on NaV1.5 (human, pH 7.4), at least 30000 nM.
Regarding `Cc1nn(C23CC4CC(CC(C4)C2)C3)c2cc(F)c(C(=O)NS(C)(=O)=O)cc12` [Example 36, 1-((3s,5s,7s)-adamantan-1-yl)-6-fluoro-3-methyl-N-(methylsulfonyl)-1H-indazole-5-carboxamide], the IC50 at hNav1.7 is 370 nM; at NaV1.7 it was 3100 nM; against NaV1.5 (human, pH 7.4), at least 30000 nM.
For `Cc1nn(C2CCCCC2)c2cc(F)c(C(=O)NS(=O)(=O)N3CCC3)cc12` [Example 37, N-(azetidin-1-ylsulfonyl)-1-cyclohexyl-6-fluoro-3-methyl-1H-indazole-5-carboxamide], the IC50 is 490 nM at hNav1.7; 3600 nM at NaV1.7; at least 30000 nM on NaV1.5 (human, pH 7.4).
The corresponding values for `Cc1nn(C2CCCCC2)c2cc(F)c(C(=O)NS(C)(=O)=O)cc12` [Example 38, 1-cyclohexyl-6-fluoro-3-methyl-N-(methylsulfonyl)-1H-indazole-5-carboxamide] are 1000 nM, 11000 nM and at least 30000 nM.
For the molecule `Cc1nn(-c2cnc(OCC(C)C)c(Cl)c2)c2cc(F)c(C(=O)NS(C)(=O)=O)cc12` [Example 39, 1-(5-chloro-6-isobutbxypyridin-3-yl)-6-fluoro-3-methyl-N-(methylsulfonyl)-1H-indazole-5-carboxamide], the IC50 on hNav1.7 is 8 nM; on NaV1.7, 39 nM; against NaV1.5 (human, pH 7.4), at least 30000 nM.
As for `Cc1nn(CC23CC4CC(CC(C4)C2)C3)c2cc(F)c(C(=O)N[S@TB2](C)(=O)=O)cc12` [Example 40, 1-(((1s,3s)-adamantan-1-yl)methyl)-6-fluoro-3-methyl-N-(methylsulfonyl)-1H-indazole-5-carboxamide], the IC50 on hNav1.7 is 410 nM; at NaV1.7 it was 1200 nM; against NaV1.5 (human, pH 7.4), at least 30000 nM.
`Cc1nn(CC23CC4CC(CC(C4)C2)C3)c2cc(F)c(C(=O)N[S@TB3](=O)(=O)N3CCC3)cc12` [Example 41, 1-(((1s,3s)-adamantan-1-yl)methyl)-N-(azetidin-1-ylsulfonyl)-6-fluoro-3-methyl-1H-indazole-5-carboxamide]: the IC50 at hNav1.7 is 300 nM; against NaV1.7 it was 3400 nM; on NaV1.5 (human, pH 7.4), at least 30000 nM.
